Converted amounts (≈) assume the structure as drawn.
Assays:
Assay in all cases: MIC, agar dilution
Type in all cases: cell-based
B. subtilis PCI 219 = conditions: Bacillus subtilis, PCI219, Mueller-Hinton agar pH 7.2, 32° C., 18 hr, 10^6 cells/ml
Description: (§1) Minimum inhibitory concentrations (MICs) of the present series of cephalosporins were determined against 32 strains of test organisms by two-fold serial agar dilution method in Mueller-Hinton agar. Geometric means of MICs were calculated against six groups of the test organisms which are classified as follows and summarized in Table 1.
(§2) Medium; MuellerHinton agar (pH = 7.2)
(§3) Incubation temperature: 32° C., 18 hr
(§4) Inoculum size; 10^6 cells/ml

C. freundii GN 7391 = conditions: Citrobacter freundii, GN7391, Mueller-Hinton agar pH 7.2, 32° C., 18 hr, 10^6 cells/ml
Description: as §1, §2, §3, §4

C. terrigena IFO 12685 = conditions: Mueller-Hinton agar pH 7.2, 32° C., 18 hr, 10^6 cells/ml
Description: as §1, §2, §3, §4

E. cloacae IPM-12 = conditions: Enterobacter cloacae, IPM12, Mueller-Hinton agar pH 7.2, 32° C., 18 hr, 10^6 cells/ml
Description: as §1, §2, §3, §4

E. coli 255 = conditions: Escherichia coli, Mueller-Hinton agar pH 7.2, 32° C., 18 hr, 10^6 cells/ml
Description: as §1, §2, §3, §4

E. faecalis A9808 = conditions: Enterococcus faecalis, Mueller-Hinton agar pH 7.2, 32° C., 18 hr, 10^6 cells/ml
Description: as §1, §2, §3, §4

E. faecium A24817 = conditions: Enterococcus faecium, Mueller-Hinton agar pH 7.2, 32° C., 18 hr, 10^6 cells/ml
Description: as §1, §2, §3, §4

K. pneumoniae PCI 602 = conditions: Klebsiella pneumoniae, PCI602, Mueller-Hinton agar pH 7.2, 32° C., 18 hr, 10^6 cells/ml
Description: as §1, §2, §3, §4

M. luteus 1001 = conditions: Micrococcus luteus, Mueller-Hinton agar pH 7.2, 32° C., 18 hr, 10^6 cells/ml
Description: as §1, §2, §3, §4

M. morgani 1510/9 = conditions: Mueller-Hinton agar pH 7.2, 32° C., 18 hr, 10^6 cells/ml
Description: as §1, §2, §3, §4

M. morgani 1510 = conditions: Mueller-Hinton agar pH 7.2, 32° C., 18 hr, 10^6 cells/ml
Description: as §1, §2, §3, §4

P. aeruginosa A20599 = conditions: Pseudomonas aeruginosa, Mueller-Hinton agar pH 7.2, 32° C., 18 hr, 10^6 cells/ml
Description: as §1, §2, §3, §4

P. aeruginosa IPM-8 = conditions: Pseudomonas aeruginosa, IPM8, Mueller-Hinton agar pH 7.2, 32° C., 18 hr, 10^6 cells/ml
Description: as §1, §2, §3, §4

P. aeruginosa IPM-9 = conditions: Pseudomonas aeruginosa, IPM9, Mueller-Hinton agar pH 7.2, 32° C., 18 hr, 10^6 cells/ml
Description: as §1, §2, §3, §4

P. aeruginosa KKA 19 = conditions: Pseudomonas aeruginosa, KKA19, Mueller-Hinton agar pH 7.2, 32° C., 18 hr, 10^6 cells/ml
Description: as §1, §2, §3, §4

P. cepacia A21213 = conditions: Burkholderia cepacia, Mueller-Hinton agar pH 7.2, 32° C., 18 hr, 10^6 cells/ml
Description: as §1, §2, §3, §4

P. cepacia No. 651 = conditions: Burkholderia cepacia, Mueller-Hinton agar pH 7.2, 32° C., 18 hr, 10^6 cells/ml
Description: as §1, §2, §3, §4

P. mirabilis IFO-2849 = conditions: Proteus mirabilis, IFO2849, Mueller-Hinton agar pH 7.2, 32° C., 18 hr, 10^6 cells/ml
Description: as §1, §2, §3, §4

P. rettgeri IPM-14 = conditions: Providencia rettgeri, IPM14, Mueller-Hinton agar pH 7.2, 32° C., 18 hr, 10^6 cells/ml
Description: as §1, §2, §3, §4

P. vulgaris IPM-13 = conditions: Proteus vulgaris, IPM13, Mueller-Hinton agar pH 7.2, 32° C., 18 hr, 10^6 cells/ml
Description: as §1, §2, §3, §4

S. aureus 209P = conditions: Staphylococcus aureus; S. aureus 209P; Mueller-Hinton agar pH 7.2; 32° C., 18 hr; 10^6 cells/ml; read-out: MIC
Description: as §1, §2, §3, §4

S. aureus 4-1015 (MRSA) = conditions: Staphylococcus aureus, Mueller-Hinton agar pH 7.2, 32° C., 18 hr, 10^6 cells/ml
Description: as §1, §2, §3, §4

S. aureus IPM-24 (MRSA) = conditions: Staphylococcus aureus, Mueller-Hinton agar pH 7.2, 32° C., 18 hr, 10^6 cells/ml
Description: as §1, §2, §3, §4

S. epidermidis 11-1230 = conditions: Staphylococcus epidermidis, 111230, Mueller-Hinton agar pH 7.2, 32° C., 18 hr, 10^6 cells/ml
Description: as §1, §2, §3, §4

S. marcescens IPM-15 = conditions: Serratia marcescens, IPM15, Mueller-Hinton agar pH 7.2, 32° C., 18 hr, 10^6 cells/ml
Description: as §1, §2, §3, §4

S. marcescens IPM-16 = conditions: Serratia marcescens, IPM16, Mueller-Hinton agar pH 7.2, 32° C., 18 hr, 10^6 cells/ml
Description: as §1, §2, §3, §4

X. maltophilia GN 12873 = conditions: Stenotrophomonas maltophilia, GN12873, Mueller-Hinton agar pH 7.2, 32° C., 18 hr, 10^6 cells/ml
Description: as §1, §2, §3, §4

X. maltophilia No. 661 = conditions: Stenotrophomonas maltophilia, Mueller-Hinton agar pH 7.2, 32° C., 18 hr, 10^6 cells/ml
Description: as §1, §2, §3, §4

E. coli Juhl A15119 = conditions: Escherichia coli, JUHLA15119; E. coli Juhl A15119; Mueller-Hinton agar pH 7.2; 32° C., 18 hr; 10^6 cells/ml; read-out: MIC
Description: as §1
(§5) In vivo antibacterial activity was determined against three bacterial infections (S. aureus Smith, E. coli Juhl and P. aeruginosa A9843A) by intramuscular administration to mice just after the bacterial challenge. PD50 values are summarized in Table 3 in comparsion with the MIC values against the corresponding organisms.
as §2, §3, §4

P. aeruginosa A9843A = conditions: Pseudomonas aeruginosa, A9843A, 18 h, pH 7.2
Description: as §1, §5, §2, §3, §4

S. aureus Smith = conditions: Staphylococcus aureus; S. aureus Smith; Mueller-Hinton agar pH 7.2; 32° C., 18 hr; 10^6 cells/ml; read-out: MIC
Description: as §1, §5, §2, §3, §4

**Q.** With `CC(C)(O/N=C(\C(=O)NC1C(=O)N2C(C(=O)[O-])=C(/C=C/C[n+]3cc4cc(O)c(O)cc4cn3)CS[C@H]12)c1csc(N)n1)C(=O)O` (some centres unmarked) [Ii, 7-[(Z)-2-(2-Aminothiazol-4-yl)-2-(1-methyl-1-carboxyethoxy-imino)acetamido]-3-[(E)-3-(6,7-dihydroxyphthalazin-2-io)-1-propen-1-yl]-3-cephem-4-carboxylate] as the compound, how does the MIC (B. subtilis PCI 219) read?
**A.** The MIC was 12.5 µg/mL (≈ 19.1 µM).

**Q.** What about the MIC (C. freundii GN 7391) of the same compound?
**A.** Its MIC is 25 µg/mL (≈ 38.1 µM).

**Q.** What about the MIC (C. terrigena IFO 12685) of the same compound?
**A.** Its MIC is 0.8 µg/mL (≈ 1.22 µM).

**Q.** What about the MIC (E. cloacae IPM-12) of the same compound?
**A.** Its MIC is 0.8 µg/mL (≈ 1.22 µM).

**Q.** And the MIC (E. coli 255)?
**A.** Its MIC is 0.013 µg/mL (≈ 0.0198 µM).

**Q.** What about the MIC (E. faecalis A9808) of the same compound?
**A.** The MIC was greater than 100 µg/mL.

**Q.** And the MIC (E. faecium A24817)?
**A.** Its MIC is greater than 100 µg/mL.

**Q.** What about the MIC (K. pneumoniae PCI 602) of the same compound?
**A.** Its MIC is less than 0.0063 µg/mL.

**Q.** And the MIC (M. luteus 1001)?
**A.** The MIC was 3.1 µg/mL (≈ 4.73 µM).

**Q.** And the MIC (M. morgani 1510/9)?
**A.** The MIC was 0.05 µg/mL (≈ 0.0763 µM).

**Q.** What about the MIC (M. morgani 1510) of the same compound?
**A.** The MIC was 0.8 µg/mL (≈ 1.22 µM).

**Q.** And the MIC (P. aeruginosa A20599)?
**A.** Its MIC is 0.2 µg/mL (≈ 0.305 µM).

**Q.** And the MIC (P. aeruginosa IPM-8)?
**A.** The MIC was 0.2 µg/mL (≈ 0.305 µM).

**Q.** And the MIC (P. aeruginosa IPM-9)?
**A.** The MIC was greater than 100 µg/mL.

**Q.** What about the MIC (P. aeruginosa KKA 19) of the same compound?
**A.** The MIC was 0.8 µg/mL (≈ 1.22 µM).

**Q.** And the MIC (P. cepacia A21213)?
**A.** Its MIC is 0.8 µg/mL (≈ 1.22 µM).

**Q.** What about the MIC (P. cepacia No. 651) of the same compound?
**A.** Its MIC is 1.6 µg/mL (≈ 2.44 µM).

**Q.** And the MIC (P. mirabilis IFO-2849)?
**A.** Its MIC is 0.025 µg/mL (≈ 0.0381 µM).

**Q.** What about the MIC (P. rettgeri IPM-14) of the same compound?
**A.** The MIC was 0.1 µg/mL (≈ 0.153 µM).

**Q.** What about the MIC (P. vulgaris IPM-13) of the same compound?
**A.** The MIC was 12.5 µg/mL (≈ 19.1 µM).

**Q.** And the MIC (S. aureus 209P)?
**A.** The MIC was 25 µg/mL (≈ 38.1 µM).

**Q.** What about the MIC (S. aureus 4-1015 (MRSA)) of the same compound?
**A.** The MIC was greater than 100 µg/mL.

**Q.** And the MIC (S. aureus IPM-24 (MRSA))?
**A.** The MIC was greater than 100 µg/mL.

**Q.** What about the MIC (S. epidermidis 11-1230) of the same compound?
**A.** Its MIC is 25 µg/mL (≈ 38.1 µM).

**Q.** And the MIC (S. marcescens IPM-15)?
**A.** Its MIC is greater than 100 µg/mL.

**Q.** What about the MIC (S. marcescens IPM-16) of the same compound?
**A.** The MIC was 1.6 µg/mL (≈ 2.44 µM).

**Q.** And the MIC (X. maltophilia GN 12873)?
**A.** Its MIC is 100 µg/mL (≈ 153 µM).

**Q.** And the MIC (X. maltophilia No. 661)?
**A.** The MIC was 50 µg/mL (≈ 76.3 µM).

**Q.** What about the MIC (E. coli Juhl A15119) of the same compound?
**A.** The MIC was 0.2 µg/mL (≈ 0.305 µM).

**Q.** What about the MIC (P. aeruginosa A9843A) of the same compound?
**A.** Its MIC is 0.1 µg/mL (≈ 0.153 µM).

**Q.** What about the MIC (S. aureus Smith) of the same compound?
**A.** The MIC was 25 µg/mL (≈ 38.1 µM).

**Q.** Which results are given for `Nc1nc(/C(=N/O)C(=O)NC2C(=O)N3C(C(=O)[O-])=C(/C=C/C[n+]4cc5cc(O)c(O)cc5cn4)CS[C@H]23)cs1` (some centres unmarked) [Ik, 7-[(Z)-2-(2-Aminothiazol-4-yl)-2-hydroxyimino-acetamido]-3-[(E)-3-(6,7-dihydroxyphthalazin-2-io)-1-propen--1-yl]-3-cephem-4-carboxylate]?
**A.** MIC (B. subtilis PCI 219): 0.4 µg/mL (≈ 0.702 µM); MIC (C. freundii GN 7391): > 100 µg/mL; MIC (C. terrigena IFO 12685): 0.8 µg/mL (≈ 1.4 µM); MIC (E. cloacae IPM-12): > 100 µg/mL; MIC (E. coli 255): 0.2 µg/mL (≈ 0.351 µM); MIC (E. faecalis A9808): 6.3 µg/mL (≈ 11.1 µM); MIC (E. faecium A24817): 50 µg/mL (≈ 87.8 µM); MIC (K. pneumoniae PCI 602): 0.05 µg/mL (≈ 0.0878 µM); MIC (M. luteus 1001): 0.4 µg/mL (≈ 0.702 µM); MIC (M. morgani 1510/9): 0.1 µg/mL (≈ 0.176 µM); MIC (M. morgani 1510): 6.3 µg/mL (≈ 11.1 µM); MIC (P. aeruginosa A20599): > 100 µg/mL; MIC (P. aeruginosa IPM-8): > 100 µg/mL; MIC (P. aeruginosa IPM-9): > 100 µg/mL; MIC (P. aeruginosa KKA 19): > 100 µg/mL; MIC (P. cepacia A21213): > 100 µg/mL; MIC (P. cepacia No. 651): 100 µg/mL (≈ 176 µM); MIC (P. mirabilis IFO-2849): 0.2 µg/mL (≈ 0.351 µM); MIC (P. rettgeri IPM-14): 1.6 µg/mL (≈ 2.81 µM); MIC (P. vulgaris IPM-13): > 100 µg/mL; MIC (S. aureus 209P): 0.8 µg/mL (≈ 1.4 µM); MIC (S. aureus 4-1015 (MRSA)): 3.1 µg/mL (≈ 5.44 µM); MIC (S. aureus IPM-24 (MRSA)): 12.5 µg/mL (≈ 21.9 µM); MIC (S. epidermidis 11-1230): 1.6 µg/mL (≈ 2.81 µM); MIC (S. marcescens IPM-15): > 100 µg/mL; MIC (S. marcescens IPM-16): > 100 µg/mL; MIC (X. maltophilia GN 12873): > 100 µg/mL; MIC (X. maltophilia No. 661): > 100 µg/mL; MIC (E. coli Juhl A15119): 0.4 µg/mL (≈ 0.702 µM); MIC (P. aeruginosa A9843A): > 100 µg/mL; MIC (S. aureus Smith): 0.8 µg/mL (≈ 1.4 µM)

Source: patent US5126336A, “Antibiotic C-3 catechol-substituted cephalosporin compounds, compositions and method of use thereof” (Bristol-Myers Squibb Company, priority 1990, dated 1992)
